# Results from the NIST ThermoML archive (doi:10.1016/j.jct.2014.12.008).
# ± gives the expanded uncertainty stated by the source.
# Details: Liquid, Closed cell (Static) method
vapor or sublimation pressure (273.15 K) [kPa],vapor or sublimation pressure (283.15 K) [kPa],vapor or sublimation pressure (293.15 K) [kPa],vapor or sublimation pressure (303.15 K) [kPa],vapor or sublimation pressure (313.15 K) [kPa],vapor or sublimation pressure (323.15 K) [kPa],vapor or sublimation pressure (333.15 K) [kPa],vapor or sublimation pressure (343.15 K) [kPa],vapor or sublimation pressure (353.15 K) [kPa],vapor or sublimation pressure (363.15 K) [kPa],Structure (SMILES)
0.004 ± 0.001,0.011 ± 0.001,0.028 ± 0.002,0.065 ± 0.005,0.137 ± 0.009,0.274 ± 0.017,0.519 ± 0.033,0.934 ± 0.024,1.611 ± 0.022,2.67 ± 0.028,"CC(CN)CCCN (stereo not given) [2-methyl-1,5-pentanediamine]"
0.026 ± 0.002,0.064 ± 0.005,0.144 ± 0.01,0.299 ± 0.019,0.585 ± 0.037,1.081 ± 0.028,1.902 ± 0.023,3.206 ± 0.032,5.201 ± 0.045,8.153 ± 0.065,"CCC(N)CCN (stereo not given) [1,3-pentanediamine]"
